Tests used:
[1] = test system: EL4 cells; assay: Viability of EL4 cells after inhibitor treatment; assay type: cell-based; conditions: EL4 cells in HSF, Brefeldin A 10 μg/ml for 24 hours
Experimental: EL4CM24 was heat inactivated at 42° C. for 1 hour prior to being used in the transmigration assays described above. […] EL4CM24 was incubated with hydrated proteinase K agarose (Sigma-Aldrich; St. Louis, Mo.) at 1 mg/ml for 1 hour at 37° C. in a 5% CO2 humidified incubator then filtered through a 0.2 μm pore-size filter prior to being used in the transmigration and intraperitoneal assays. Murine T-cells were incubated with pertussis toxin (Sigma-Aldrich; St. Louis, Mo.) at 100 ng/ml for 1 hour at 37° C. in a 5% CO2 humidified incubator, prior to being used in the transmigration assays. EL4CM24 was incubated with radiciol (Sigma-Aldrich; St. Louis, Mo.) for two hours at room temperature at concentrations 0.1 μg/ml and 7.3 μg/ml. The transmigration was then carried out using the EL4CM24 mixture. As a control, transmigration assays were also carried out using gradients of HSF media supplemented with 7.3 μg/ml of radicol or using EL4CM24-radicicol mixtures from which excess radiciol had been removed using 5 kDa size exclusion Centricon Ultrafree filters (Millipore; Billerica, Mass.). EL4 cells in HSF were also exposed to Geldanamycin at 1.2 μM or 200 nM prior to use of the CM in transmigration assays. EL4 cells in HSF were also exposed to Brefeldin A at 10 μg/ml overnight for a full 24 hours prior to use of the EL4CM24 in transmigration assays. […]

[2] = test system: murine T-cells; assay: Quantitative transmigration assay (ChemoTx), negative gradients of EL4 conditioned media; assay type: cell-based, C57BL/6 mice; conditions: compared with untreated EL4CM24
Experimental: C57BL/6 mice (4 to 8 weeks old) (Jackson Laboratories; Bar Harbor Me.) were euthanized, and dissection of superficial cervical, axillary, brachial and inguinal lymph nodes was performed under sterile conditions. Dissected lymph nodes were then physically disaggregated and a cell suspension generated. The cell suspension was then enriched for T cells by depletion of non-T cells using MACS Pan T cell isolation kit for mouse leukocytes (Miltenyi Biotec; Auburn, Calif.).
Quantitative transmigration assays were carried out as described previously. In brief, ChemoTx chemotaxis 30 μl well plates with 3 μm pore size filters (Neuro Probe; Gaithersburg, Md.) were used. 20,000 murine T-cells were loaded in the upper chamber of the ChemoTx system and subjected to positive, negative and uniform gradients of EL4CM24 in a standard checkerboard analysis of cell migration. The peak concentrations used in each gradient were 1 in 2, 1 in 10, and 1 in 100 dilutions of EL4CM24 with 10.5 media; Isocove's supplemented with 0.5% fetal calf serum, 50 units/ml Penicillin, 50 μg/ml Streptomycin and 292 μg/ml L-Glutamine (Mediatech; Herndon, Va.). […] The chemotactic index was calculated as the quotient of the average number of cells migrating in response to EL4CM24 and the average number of cells migrating in response to media alone. […]

[3] = test system: T-cell infiltration into the peritoneal cavity; assay: Intraperitoneal injection of conditioned media and analysis of lymphocyte infiltration; design: species or system BALB/c-DO11 mice; conditions: after immunoprecipitation of HSP90α from EL-4 CM with a monoclonal antibody; immune challenge in vivo
Experimental: BALB/c-DO11 mice (kindly provided by Dr. Iacomini, Massachusetts General Hospital) were primed by subcutaneous injection with 100 μl of ovalbumin (ICN Biomedicals; Costa Mesa, Calif.) dissolved in Freund's complete adjuvant (Pierce Biotechnology; Rockford, Ill.) at a concentration 1 mg/ml. Three days later, mice were injected intraperitoneally with 250 μl of ovalbumin dissolved in sterile water at concentration a 0.4 mg/ml. 24 hours later, experimental mice were injected intraperitoneally with 250 μl of EL4CM24, while control mice were injected intraperitoneally with 250 μl of HSF media or protease treated EL4CM24. 24 hours later, cells were extracted from the intraperitoneal space by lavage with 5 ml of cold phosphate buffered saline (Mediatech; Herndon, Va.) and aspiration with a 10 ml syringe and 21-gauge needle. Peritoneal lavage cells were counted on a hemocytometer and then immuno-stained for anti-CD3, CD4, CD8 and TCR-kj-OVA lymphocyte expression (BD BioSciences; San Jose, Calif.) and anti-CD4 (Caltag Laboratories; Burlingame, Calif.) with antibodies labelled with Percp and PE (phytoerythrin) known fluorophor labels. T-cells expressing CD3+, CD3+ CD4+, CD3+ CD8+, CD3+ TCR-kj-OVA were then determined by FACS analysis.

Row | Compound | level of migration of lymphocytes [2] | further results
1 | C[C@H]1CCC/C=C/[C@@H]2C[C@H](O)C[C@H]2[C@H](O)/C=C/C(=O)O1 [Brefeldin A] |  | viability [1]: Greater than 65%
2 | C[C@@H]1C[C@H]2O[C@@H]2/C=C\C=C\C(=O)Cc2c(Cl)c(O)cc(O)c2C(=O)O1 [radicicol] | not significantly reduced | 
3 | HSP90α: heat shock protein in EL-4 conditioned medium, removed by immunoprecipitation with a monoclonal antibody |  | reduction in the fugetactic effect of the CM on T-cells infiltrating the peritoneal cavity [3]: four-fold reduction
4 | pertussis toxin | significantly reduced | 
